What is called Ki is a measure of affinity in units of concentration, obtained from inhibition or displacement. The low end stands for a stronger hold on the target, the high end for a looser hold on the target.

Consider one compound from publication PMC10468695, “The coenzyme B12 precursor 5,6-dimethylbenzimidazole is a flavin antagonist in Salmonella” (Microbial Cell, 2023).

For the assay, the target named is T1, NAD(P)H:flavin reductase (Fre) (Salmonella enterica, UniProt Q9L6L9).
T1 construct: tag-less Fre (H6 tag cleaved by rTEV)
T1 sequence (Q9L6L9 2-233): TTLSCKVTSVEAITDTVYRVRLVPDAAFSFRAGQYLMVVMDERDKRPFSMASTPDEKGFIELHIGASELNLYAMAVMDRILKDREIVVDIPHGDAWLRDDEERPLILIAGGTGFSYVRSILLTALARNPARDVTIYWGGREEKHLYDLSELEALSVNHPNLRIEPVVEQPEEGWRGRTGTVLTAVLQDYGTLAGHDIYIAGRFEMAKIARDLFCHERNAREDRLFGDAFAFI
Put plainly: NADH oxidation assay at […] nm with purified Fre; competitive inhibition fit versus FMN. The class given is biochemical.

With `Cc1cc2nc[nH]c2cc1C` [DMB, 5,6-dimethylbenzimidazole], the Ki was 1900 µM.
